One assay has as its target Cannabinoid receptor 1 (Homo sapiens, UniProt P21554). Put plainly: Binding affinity to CB1 receptor.
Another assay deals with Cannabinoid receptor 2 (Homo sapiens, UniProt P34972). Put plainly: Binding affinity to CB2 receptor.
Sequence of Cannabinoid receptor 2 (P34972 whole entry): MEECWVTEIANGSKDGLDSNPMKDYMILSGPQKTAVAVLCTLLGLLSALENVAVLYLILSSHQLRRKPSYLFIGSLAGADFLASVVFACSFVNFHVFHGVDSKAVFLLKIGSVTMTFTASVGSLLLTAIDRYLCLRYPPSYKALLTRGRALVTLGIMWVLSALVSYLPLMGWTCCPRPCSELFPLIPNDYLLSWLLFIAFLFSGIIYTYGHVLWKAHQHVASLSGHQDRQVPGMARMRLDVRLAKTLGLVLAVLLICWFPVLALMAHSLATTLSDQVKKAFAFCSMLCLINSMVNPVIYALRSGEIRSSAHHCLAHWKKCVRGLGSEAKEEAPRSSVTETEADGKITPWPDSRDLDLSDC

Sequence of Cannabinoid receptor 1 (P21554 whole entry): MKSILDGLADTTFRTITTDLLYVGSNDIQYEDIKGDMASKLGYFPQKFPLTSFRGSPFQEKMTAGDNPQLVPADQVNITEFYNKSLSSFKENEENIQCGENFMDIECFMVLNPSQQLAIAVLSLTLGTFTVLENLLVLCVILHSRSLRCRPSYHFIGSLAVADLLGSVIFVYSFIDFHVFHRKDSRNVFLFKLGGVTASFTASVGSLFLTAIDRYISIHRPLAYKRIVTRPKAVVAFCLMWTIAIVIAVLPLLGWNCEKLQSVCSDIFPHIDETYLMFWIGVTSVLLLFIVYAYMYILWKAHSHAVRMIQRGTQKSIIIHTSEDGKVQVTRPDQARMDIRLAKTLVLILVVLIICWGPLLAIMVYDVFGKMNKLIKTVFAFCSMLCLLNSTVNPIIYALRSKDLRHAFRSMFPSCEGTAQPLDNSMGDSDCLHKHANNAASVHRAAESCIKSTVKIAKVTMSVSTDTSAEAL

Regarding `CC1=CC[C@@H]2[C@@H](C1)c1c(O)cc(CCCCCN=[N+]=[N-])cc1OC2(C)C`, at Cannabinoid receptor 1, the affinity, expressed as Ki, was 19 nM.

Take `CCCCCCC1(c2cc(O)c3c(c2)OC(C)(C)[C@@H]2CC=C(C)C[C@@H]32)OCCO1`: the Ki at Cannabinoid receptor 1 was found to be 0.52 nM; on Cannabinoid receptor 2, 0.22 nM. Taken in the same sequence, the figures for `CCCCCCC1(c2cc(O)c3c(c2)OC(C)(C)[C@@H]2CC=C(C)C[C@@H]32)SCCCS1` were 1.8 nM and 3.6 nM.

On to `CCCCCCC1(c2cc(O)c3c(c2)OC(C)(C)[C@@H]2CC=C(C)C[C@@H]32)CCCC1`, for which the values for the Ki at Cannabinoid receptor 1 and at Cannabinoid receptor 2 were 0.45 nM and 1.92 nM, respectively.

As to `CC1=CC[C@@H]2[C@@H](C1)c1c(O)cc(C3SCCS3)cc1OC2(C)C`, the values for the Ki at Cannabinoid receptor 1 and at Cannabinoid receptor 2 were 168 nM and 103 nM, respectively. Take `CCCCCCC1(c2cc(O)c3c(c2)OC(C)(C)[C@@H]2CC=C(C)C[C@@H]32)CC1(Br)Br` (stereo partly specified): the Ki on Cannabinoid receptor 1 was 0.71 nM; on Cannabinoid receptor 2, 1.03 nM. The like results for `CCCCCCC1(c2cc(O)c3c(c2)OC(C)(C)[C@@H]2CC=C(C)C[C@@H]32)CC1(Cl)Cl` (stereo partly specified) were, in that order, 1.27 nM and 0.29 nM. Consider `CC1=CC[C@@H]2[C@@H](C1)c1c(O)cc(C(C)(C)CCCCOc3ccc(C#N)cc3)cc1OC2(C)C`, for which the Ki at Cannabinoid receptor 1 came out at 1.5 nM; on Cannabinoid receptor 2 it was 1.1 nM. In the case of `CC1=CC[C@@H]2[C@@H](C1)c1c(O)cc(C(C)(C)CCCCC(=O)NN3CCCCC3)cc1OC2(C)C`, the inhibition constant (Ki) at Cannabinoid receptor 1 came to 4.5 nM; at Cannabinoid receptor 2 it was 3.2 nM. Taken in the same sequence, the figures for `CC1=CC[C@@H]2[C@@H](C1)c1c(O)cc(C(C)(C)CCCCCC#N)cc1OC2(C)C` were 0.2 nM and 2.9 nM.

Regarding `CCCCCCC1(c2cc(O)c3c(c2)OC(C)(C)[C@@H]2CC=C(C)C[C@@H]32)CC1`, the Ki was determined as 0.44 nM at Cannabinoid receptor 1 and 0.86 nM at Cannabinoid receptor 2.

Take `CC1=CC[C@@H]2[C@@H](C1)c1c(O)cc(C(C)(C)CCCCBr)cc1OC2(C)C`: the Ki on Cannabinoid receptor 1 was determined as 0.43 nM. Consider `CCc1ccc(-c2cc(O)c3c(c2)OC(C)(C)[C@@H]2CC=C(C)C[C@@H]32)cc1`, for which the Ki at Cannabinoid receptor 1 came to 119 nM; at Cannabinoid receptor 2 it was 51.7 nM. Taken in the same sequence, the figures for `CC1=CC[C@@H]2[C@@H](C1)c1c(O)cc(C3(C#N)CCCCC3)cc1OC2(C)C` were 8.26 nM and 3.86 nM. In the case of `CCCc1ccc(-c2cc(O)c3c(c2)OC(C)(C)[C@@H]2CC=C(C)C[C@@H]32)cc1`, the inhibition constant (Ki) on Cannabinoid receptor 1 is 57.8 nM; at Cannabinoid receptor 2, 108 nM. The like results for `CC1=CC[C@@H]2[C@@H](C1)c1c(O)cc(C3(C#N)CCCC3)cc1OC2(C)C` were, in that order, 27.9 nM and 25.2 nM.

Turning to `C=C(C)C1CCC(C)=C[C@H]1c1c(O)cc(-c2cccc3ccccc23)cc1O` (stereo partly specified), the Ki came to 754 nM on Cannabinoid receptor 1 and 222 nM at Cannabinoid receptor 2. Turning to `C=C(C)C1CCC(C)=C[C@H]1c1c(O)cc(C2(C#N)CCCC2)cc1O` (stereo partly specified), the inhibitory constant (Ki) at Cannabinoid receptor 1 was found to be 255 nM; at Cannabinoid receptor 2, 105 nM.

`C=C(C)C1CCC(C)=C[C@H]1c1c(O)cc(C2(CCCCCC)CC2(Cl)Cl)cc1O` (stereo partly specified): the Ki at Cannabinoid receptor 1 was determined as 666 nM; on Cannabinoid receptor 2 it was 32.9 nM.

Consider `C=C(C)C1CCC(C)=C[C@H]1c1c(O)cc(C2(CCCCCC)SCCS2)cc1O` (stereo partly specified), for which the Ki is 136 nM at Cannabinoid receptor 1 and 50.4 nM on Cannabinoid receptor 2. The like results for `C=C(CCCCCC)c1cc(O)c2c(c1)OC(C)(C)[C@@H]1CC=C(C)C[C@@H]21` were, in that order, 2.17 nM and 3.3 nM. On to `C=C(C)C1CCC(C)=C[C@H]1c1c(O)cc(-c2ccc(C)cc2)cc1O` (stereo partly specified), for which the Ki was found to be 638 nM on Cannabinoid receptor 1 and 374 nM at Cannabinoid receptor 2. Turning to `CCCC(C)(C)c1cc(O)c2c(c1)OC(C)(C)[C@@H]1CC=C(C)C[C@@H]21`, on Cannabinoid receptor 1, the affinity corresponds to a Ki of 10.9 nM. The same measure, in the same setting: as for `CCCCCC(C)(C)c1cc(O)c2c(c1)OC(C)(C)[C@@H]1CC=C(C)C[C@@H]21`, the figure is 2.7 nM; as for `CC1=CC[C@@H]2[C@@H](C1)c1c(O)cc(CCCC(C)C)cc1OC2(C)C`, 141 nM. Consider `CC1=CC[C@@H]2[C@@H](C1)c1c(O)cc(C(C)(C)C3CCCC3)cc1OC2(C)C`, for which the Ki turned out to be 0.34 nM on Cannabinoid receptor 1 and 0.39 nM on Cannabinoid receptor 2. As for `CC1=CC[C@@H]2[C@@H](C1)c1c(O)cc(C(C)(C)C3CCCCCC3)cc1OC2(C)C`, the results for the Ki on Cannabinoid receptor 1 and at Cannabinoid receptor 2 were 0.94 nM and 0.22 nM, respectively. Take `CC1=CC[C@@H]2[C@@H](C1)c1c(O)cc(C(C)(C)C)cc1OC2(C)C`: on Cannabinoid receptor 1, the affinity, expressed as Ki, was 14 nM. Turning to `CCCCCCC1(c2cc(O)c3c(c2)OC(C)(C)[C@@H]2CC=C(C)C[C@@H]32)Sc2ccccc2S1`, the Ki was 56.9 nM at Cannabinoid receptor 1 and 257 nM at Cannabinoid receptor 2. For the compound `CCCCCCC1(c2cc(O)c3c(c2)OC(C)(C)[C@@H]2CC=C(C)C[C@@H]32)SC(C)C(C)S1` (stereo partly specified), the Ki on Cannabinoid receptor 1 came to 32.3 nM; on Cannabinoid receptor 2, 19.7 nM.

Turning to `CC1=CC[C@@H]2[C@@H](C1)c1c(O)cc(C(C)(C)CCCCC#N)cc1OC2(C)C`, the figures for the Ki on Cannabinoid receptor 1 and at Cannabinoid receptor 2 were 1.75 nM and 1.1 nM, respectively.

`CC1=CC[C@@H]2[C@@H](C1)c1c(O)cc(-c3cccc4ccccc34)cc1OC2(C)C`: the inhibition constant Ki at Cannabinoid receptor 1 was 11.7 nM; at Cannabinoid receptor 2, 9.39 nM. Turning to `CC1=CC[C@@H]2[C@@H](C1)c1c(O)cc(-c3ccc(C)cc3)cc1OC2(C)C`, the Ki on Cannabinoid receptor 1 is 95.5 nM; on Cannabinoid receptor 2 it was 71.8 nM. The like results for `C=C(C)C1CCC(C)=C[C@H]1c1c(O)cc(C2(CCCCCC)CC2(Br)Br)cc1O` (stereo partly specified) were, in that order, 189 nM and 63.3 nM. The like results for `C=C(C)C1CCC(C)=C[C@H]1c1c(O)cc(C2(CCCCCC)CC2)cc1O` (stereo partly specified) were, in that order, 58.7 nM and 99.2 nM.

Take `CCCCC(C)(C)c1cc(O)c2c(c1)OC(C)(C)[C@@H]1CC=C(C)C[C@@H]21`: the Ki at Cannabinoid receptor 1 stood at 3.9 nM.

Regarding `CC1=CC[C@@H]2[C@@H](C1)c1c(O)cc(Oc3ccccc3)cc1OC2(C)C`, the Ki was determined as 297 nM on Cannabinoid receptor 1 and 23.6 nM on Cannabinoid receptor 2. Taken in the same sequence, the figures for `C=C(C)C1CCC(C)=C[C@H]1c1c(O)cc(C2(C#N)CCCCC2)cc1O` (stereo partly specified) were 319 nM and 111 nM.

Consider `CCCCCCC(=O)c1cc(O)c2c(c1)OC(C)(C)[C@@H]1CC=C(C)C[C@@H]21`, for which the figures for the Ki at Cannabinoid receptor 1 and at Cannabinoid receptor 2 were 21.7 nM and 83.7 nM, respectively. Taken in the same sequence, the figures for `CC1=CC[C@@H]2[C@@H](C1)c1c(O)cc(C34CC5CC(CC(C5)C3)C4)cc1OC2(C)C` were 6.8 nM and 52 nM. Take `CCCCCCC1(c2cc(O)c3c(c2)OC(C)(C)[C@@H]2CC=C(C)C[C@@H]32)SCCS1`: the figures for the Ki at Cannabinoid receptor 1 and on Cannabinoid receptor 2 were 0.32 nM and 0.52 nM, respectively.

On Cannabinoid receptor 1, `CCCCCCCc1cc(O)c2c(c1)OC(C)(C)[C@@H]1CC=C(C)C[C@@H]21` had an inhibition constant (Ki) of 22 nM.

For orientation: Ki means the equilibrium dissociation constant of an inhibitor or competing ligand from its target.
